Data published in US20260217701A1, “SELECTIVE BET INHIBITORS AND USES THEREOF” (Tay Therapeutics Limited, priority 2022, published 2026).

Legend:
[1] = target: T1, BRD4 BD1 (Homo sapiens, UniProt O60885); experiment: NanoBRET bromodomain assay, NanoLuc-BRD4-BD1 in HEK293 cells; format: binding
T1 construct: HEK293 cells were transfected using NanoLuc-BRD4-BD1 or NanoLuc-BRD4-BD2 fusion vectors
Experimental: Exemplary compounds of the disclosure are active against BRD4 BD2 and selective over BRD4 BD1. BRD4 is a representative example of the BET family, as the binding sites of all BET family members are structurally similar. […] IC50s and fold selectivity's are determined as described below and are represented in Table 1.
(§1) Plates were then incubated at 37° C.+5% CO2 incubator for 2 hours.
(§2) Fold Selectivity Calculated (IC50 BD1/IC50 BD2).

[2] = target: T2, BRD4 BD2 (Homo sapiens, UniProt O60885); experiment: NanoBRET bromodomain assay, NanoLuc-BRD4-BD2 in HEK293 cells; format: binding; conditions: for Fold Selectivity BRD4 BD1/BD2: IC50 BD1/IC50 BD2, qualitative if an IC50 is at the upper limit
T2 construct: HEK293 cells were transfected using NanoLuc-BRD4-BD1 or NanoLuc-BRD4-BD2 fusion vectors
Experimental: as §1, §2

Row | Compound | IC50 [1] [nM] | IC50 [2] [nM] | Fold Selectivity BRD4 BD1/BD2 [2]
1 | Cc1cc(-c2cc3c(-c4cc(=O)n(C)cc4-c4ccccc4Cl)cn(C)c(=O)c3[nH]2)cc(C)n1.Cl [Example 32, 4-(5-(2-chlorophenyl)-1-methyl-2-oxo-1,2-dihydropyridin-4-yl)-2-(2,6-dimethylpyridin-4-yl)-6-methyl-1,6-dihydro-7H-pyrrolo[2,3-c]pyridin-7-one hydrogen chloride] | > 1000 | 10 to 50 | xxx (Fold >200 and ≤1000)
2 | Cc1cc(-c2cc3c(-c4cc(=O)n(C)cc4-c4ccc5c(c4)COC5)cn(C)c(=O)c3[nH]2)cc(C)n1.Cl [Example 33, 4-(5-(1,3-dihydroisobenzofuran-5-yl)-1-methyl-2-oxo-1,2-dihydropyridin-4-yl)-2-(2,6-dimethylpyridin-4-yl)-6-methyl-1,6-dihydro-7H-pyrrolo[2,3-c]pyridin-7-one hydrochloride] | > 1000 | < 10 | xxxx (Fold >1000)
3 | Cn1cc(-c2ccccc2)c(-c2cn(C)c(=O)c3[nH]c(-c4cnn(C(F)(F)F)c4)cc23)cc1=O [Example 34, 6-methyl-4-(1-methyl-2-oxo-5-phenyl-1,2-dihydropyridin-4-yl)-2-(1-(trifluoromethyl)-1H-pyrazol-4-yl)-1,6-dihydro-7H-pyrrolo[2,3-c]pyridin-7-one] | > 1000 | < 10 | xxxx (Fold >1000)
4 | Cn1cc(-c2cccc(C3COC3)c2)c(-c2cn(C)c(=O)c3[nH]c(-c4ccc(F)cc4F)cc23)cc1=O [Example 35, 2-(2,4-difluorophenyl)-6-methyl-4-(1-methyl-5-(3-(oxetan-3-yl)phenyl)-2-oxo-1,2-dihydropyridin-4-yl)-1,6-dihydro-7H-pyrrolo[2,3-c]pyridin-7-one] | > 1000 | 10 to 50 | xxx (Fold >200 and ≤1000)
5 | Cn1cc(-c2cccc(CN3CCOCC3)c2)c(-c2cn(C)c(=O)c3[nH]c(-c4ccc(F)cc4F)cc23)cc1=O [Example 36, 2-(2,4-difluorophenyl)-6-methyl-4-(1-methyl-5-(3-(morpholinomethyl)phenyl)-2-oxo-1,2-dihydropyridin-4-yl)-1,6-dihydro-7H-pyrrolo[2,3-c]pyridin-7-one] | > 1000 | 10 to 50 | xxx (Fold >200 and ≤1000)
6 | Cn1cc(-c2cccnc2)c(-c2cn(C)c(=O)c3[nH]c(-c4ccc(F)cc4F)cc23)cc1=O [Example 37, 2-(2,4-difluorophenyl)-6-methyl-4-(1-methyl-6-oxo-1,6-dihydro-[3,3′-bipyridin]-4-yl)-1,6-dihydro-7H-pyrrolo[2,3-c]pyridin-7-one] | > 1000 | 10 to 50 | xxx (Fold >200 and ≤1000)
7 | Cc1cccc(C)c1Oc1cn(C)c(=O)cc1-c1cn(C)c(=O)c2[nH]c(-c3ccccn3)cc12 [Example 38, 4-(5-(2,6-dimethylphenoxy)-1-methyl-2-oxo-1,2-dihydropyridin-4-yl)-6-methyl-2-(pyridin-2-yl)-1,6-dihydro-7H-pyrrolo[2,3-c]pyridin-7-one] | > 1000 | 10 to 50 | xxx (Fold >200 and ≤1000)
8 | Cc1cccc(C)c1Oc1cn(C2CC2)c(=O)cc1-c1cn(C)c(=O)c2[nH]c(-c3ccc(F)cc3F)cc12 [Example 39, 4-(1-cyclopropyl-5-(2,6-dimethylphenoxy)-2-oxo-1,2-dihydropyridin-4-yl)-2-(2,4-difluorophenyl)-6-methyl-1,6-dihydro-7H-pyrrolo[2,3-c]pyridin-7-one] | > 1000 | < 10 | xxxx (Fold >1000)
9 | COc1cccc(-c2cc3c(-c4cc(=O)n(C5CC5)cc4Oc4c(C)cccc4C)cn(C)c(=O)c3[nH]2)c1F [Example 40, 4-(1-cyclopropyl-5-(2,6-dimethylphenoxy)-2-oxo-1,2-dihydropyridin-4-yl)-2-(2-fluoro-3-methoxyphenyl)-6-methyl-1,6-dihydro-7H-pyrrolo[2,3-c]pyridin-7-one] | > 1000 | 10 to 50 | xxx (Fold >200 and ≤1000)
10 | CCCn1cc(-c2cc3c(-c4cc(=O)n(C)cc4Oc4c(C)cccc4C)cn(C)c(=O)c3[nH]2)cn1 [Example 41, 4-(5-(2,6-dimethylphenoxy)-1-methyl-2-oxo-1,2-dihydropyridin-4-yl)-6-methyl-2-(1-propyl-1H-pyrazol-4-yl)-1,6-dihydro-7H-pyrrolo[2,3-c]pyridin-7-one] | > 1000 | < 10 | xxxx (Fold >1000)
11 | Cn1cc(-c2ccccc2)c(-c2cn(C)c(=O)c3[nH]c(-c4ccccc4F)cc23)cc1=O [Example 42, 2-(2-fluorophenyl)-6-methyl-4-(1-methyl-2-oxo-5-phenyl-1,2-dihydropyridin-4-yl)-1,6-dihydro-7H-pyrrolo[2,3-c]pyridin-7-one] | > 1000 | < 10 | xxxx (Fold >1000)
12 | Cn1cc(-c2ccccc2)c(-c2cn(C)c(=O)c3[nH]c(-c4ccc(F)cc4F)cc23)cc1=O [Example 43, 2-(2,4-difluorophenyl)-6-methyl-4-(1-methyl-2-oxo-5-phenyl-1,2-dihydropyridin-4-yl)-1,6-dihydro-7H-pyrrolo[2,3-c]pyridin-7-one] | > 1000 | < 10 | xxxx (Fold >1000)
13 | Cn1cc(-c2ccccc2)c(-c2cn(C)c(=O)c3[nH]c(-c4ccc(C5COC5)cc4)cc23)cc1=O [Example 44, 6-methyl-4-(1-methyl-2-oxo-5-phenyl-1,2-dihydropyridin-4-yl)-2-(4-(oxetan-3-yl)phenyl)-1,6-dihydro-7H-pyrrolo[2,3-c]pyridin-7-one] | > 1000 | < 10 | xxxx (Fold >1000)
14 | Cn1cc(-c2ccccc2)c(-c2cn(C)c(=O)c3[nH]c(-c4ccc(S(C)(=O)=O)cc4)cc23)cc1=O [Example 45, 6-methyl-4-(1-methyl-2-oxo-5-phenyl-1,2-dihydropyridin-4-yl)-2-(4-(methylsulfonyl)phenyl)-1,6-dihydro-7H-pyrrolo[2,3-c]pyridin-7-one] | > 1000 | < 10 | xxxx (Fold >1000)
15 | COCc1ccc(-c2cc3c(-c4cc(=O)n(C)cc4-c4ccccc4)cn(C)c(=O)c3[nH]2)cc1 [Example 46, 2-(4-(methoxymethyl)phenyl)-6-methyl-4-(1-methyl-2-oxo-5-phenyl-1,2-dihydropyridin-4-yl)-1,6-dihydro-7H-pyrrolo[2,3-c]pyridin-7-one] | > 1000 | < 10 | xxxx (Fold >1000)
16 | Cn1cc(-c2cc(=O)n(C3CC3)cc2-c2ccccc2)c2cc(-c3ccccc3F)[nH]c2c1=O [Example 47, 4-(1-cyclopropyl-2-oxo-5-phenyl-1,2-dihydropyridin-4-yl)-2-(2-fluorophenyl)-6-methyl-1,6-dihydro-7H-pyrrolo[2,3-c]pyridin-7-one] | > 1000 | < 10 | xxxx (Fold >1000)
17 | Cn1cc(-c2cc(=O)n(C3CC3)cc2-c2ccccc2)c2cc(-c3cccc(F)c3F)[nH]c2c1=O [Example 48, 4-(1-cyclopropyl-2-oxo-5-phenyl-1,2-dihydropyridin-4-yl)-2-(2,3-difluorophenyl)-6-methyl-1,6-dihydro-7H-pyrrolo[2,3-c]pyridin-7-one] | > 1000 | < 10 | xxxx (Fold >1000)
18 | Cn1cc(-c2cc(=O)n(C3CC3)cc2-c2ccccc2)c2cc(-c3ccc(F)cc3F)[nH]c2c1=O [Example 49, 4-(1-cyclopropyl-2-oxo-5-phenyl-1,2-dihydropyridin-4-yl)-2-(2,4-difluorophenyl)-6-methyl-1,6-dihydro-7H-pyrrolo[2,3-c]pyridin-7-one] | > 1000 | < 10 | xxxx (Fold >1000)
19 | COc1cccc(-c2cc3c(-c4cc(=O)n(C5CC5)cc4-c4ccccc4)cn(C)c(=O)c3[nH]2)c1F [Example 50, 4-(1-cyclopropyl-2-oxo-5-phenyl-1,2-dihydropyridin-4-yl)-2-(2-fluoro-3-methoxyphenyl)-6-methyl-1,6-dihydro-7H-pyrrolo[2,3-c]pyridin-7-one] | > 1000 | < 10 | xxxx (Fold >1000)
20 | Cn1cc(-c2cccc(C(C)(C)O)c2)c(-c2cn(C)c(=O)c3[nH]c(-c4ccc(F)cc4F)cc23)cc1=O [Example 51, 2-(2,4-difluorophenyl)-4-(5-(3-(2-hydroxypropan-2-yl)phenyl)-1-methyl-2-oxo-1,2-dihydropyridin-4-yl)-6-methyl-1,6-dihydro-7H-pyrrolo[2,3-c]pyridin-7-one] | > 1000 | < 10 | xxxx (Fold >1000)
21 | COCCn1cc(-c2ccccc2)c(-c2cn(C)c(=O)c3[nH]c(-c4cnn(C(F)(F)F)c4)cc23)cc1=O [Example 52, 4-(1-(2-methoxyethyl)-2-oxo-5-phenyl-1,2-dihydropyridin-4-yl)-6-methyl-2-(1-(trifluoromethyl)-1H-pyrazol-4-yl)-1,6-dihydro-7H-pyrrolo[2,3-c]pyridin-7-one] | > 1000 | < 10 | xxxx (Fold >1000)
22 | COCCOc1cccc(-c2cn(C)c(=O)cc2-c2cn(C)c(=O)c3[nH]c(-c4ccc(F)cc4F)cc23)c1 [Example 53, 2-(2,4-difluorophenyl)-4-(5-(3-(2-methoxyethoxy)phenyl)-1-methyl-2-oxo-1,2-dihydropyridin-4-yl)-6-methyl-1,6-dihydro-7H-pyrrolo[2,3-c]pyridin-7-one] | > 1000 | < 10 | xxxx (Fold >1000)
